Laboratory results reported in paper PMC6981581, “N-(2-Arylmethylthio-4-Chloro-5-Methylbenzenesulfonyl)amide Derivatives as Potential Antimicrobial Agents—Synthesis and Biological Studies” (International Journal of Molecular Sciences, 2019).
In brackets after ≈: the same amount, converted by molar mass. Where two headings read alike, the source gives them in different places.

Columns and labels:
S.aureus 55 (MSSA) = test: Broth dilution MIC/MBC, clinical MSSA isolate; assay type: cell-based; conditions: Staphylococcus aureus, clinical MSSA S.aureus 55
Source text: (§1) […]. Both MRSA and MSSA strains were derived from various human infections.
(§2) […]. Five methicillin-resistant S. aureus strains were isolated from nose (n = 1), bronchoalveolar lavage (n = 1), sputum (n = 1), wound (n = 1), and blood (n = 1); five methicillin-susceptible S. aureus strains were isolated from throat (n = 1), bronchoalveolar lavage (n = 1), sputum (n = 1), abscess (n = 1), and blood (n = 1).
(§3) The identity of S. aureus isolates was confirmed with conventional methods and with Pastorex Staph-Plus latex agglutination kit (Bio-Rad, Marnes-la-Coquette, France) and verified applying the polymerase chain reaction (PCR) of S. aureus-specific region of the thermonuclease gene, nuc. Resistance to methicillin was first verified using cefoxitin disk (30 µg), and then, identified based on the presence of mecA gene. S. aureus ATCC®25923 (methicillin-susceptible) and S. aureus ATCC®43300 (MDR) were applied as the reference strains. Both the reference and clinical strains were stored at −80 °C, in Tryptic Soy Broth (TSB, Becton-Dickinson, Franklin Lakes, NJ, USA) supplemented with 15% glycerol.
(§4) A broth dilution method was used to determine minimal inhibitory concentration (MIC) for tested compounds as recommended by Clinical Laboratory Standards Institute (CLSI) guidelines. Investigated compounds were diluted in Mueller Hinton Broth 2 (Sigma-Aldrich Co., St. Louis, MO, USA) in polypropylene 96-well plates and initial inoculum 5 × 10^5 cfu/mL were incubated at 37 °C for 18 h. MIC was taken as the lowest drug concentration at which an observable growth was inhibited. […] The loopful (10 µL) of the tested sample was transferred to Tryptic Soy Agar (TSA, Becton-Dickinson, Franklin Lakes, NJ, USA) and incubated at 37 °C for 48 h. […] Drug Solutions were made fresh on the day of the assay. All experiments were performed in triplicate.

S.aureus 56 (MSSA) = test: Broth dilution MIC/MBC, clinical MSSA isolate; assay type: cell-based; conditions: Staphylococcus aureus, clinical MSSA S.aureus 56
Source text: as §1, §2, §3, §4

S.aureus 57 (MSSA) = test: Broth dilution MIC/MBC, clinical MSSA isolate; assay type: cell-based; conditions: Staphylococcus aureus, clinical MSSA S.aureus 57
Source text: as §1, §2, §3, §4

S.aureus 58 (MSSA) = test: Broth dilution MIC/MBC, clinical MSSA isolate; assay type: cell-based; conditions: Staphylococcus aureus, clinical MSSA S.aureus 58
Source text: as §1, §2, §3, §4

S.aureus 59 (MSSA) = test: Broth dilution MIC/MBC, clinical MSSA isolate; assay type: cell-based; conditions: Staphylococcus aureus, clinical MSSA S.aureus 59
Source text: as §1, §2, §3, §4

MRSA 51 biofilm = test: Biofilm inhibition assay (crystal violet); assay type: cell-based, Staphylococcus aureus; conditions: MRSA 51, 4 × MIC
Procedure: (§5) For many decades, S. aureus has been identified as the most common etiologic agent of device related infections, associated with biofilm formation. These infections are hard to cure because the specific structure of biofilm confers resistance to the host immune response and to the action of antibiotics.
(§6) Then, 100 µL bacterial suspension prepared from fresh overnight culture by diluting with TSB to obtain the initial inoculum 2 × 10^6 CFU/mL was added. The plates were incubated for 24 h at 37 °C. After the incubation, the wells were discarded and were gently rinsed three times with PBS to remove planktonic staphylococcal cells. Then, contents of the wells were discarded and the biofilm was fixed with 200 µL methanol for 20 min and dried at room temperature for 30 min. The biofilm was stained by adding 200 µL 1.8% crystal violet solution for 15 min. After staining, the plates were rinsed with water and 200 µL bleaching solution (30% ethanol, 30% glacial acetic acid, 40% water) added for 15 min to dissolve the remaining crystal violet. A microplater reader was used to measure the absorbance of the adherent biofilm at 570 nm (OD570). […] The negative control included only the growth medium.

MRSA 52 biofilm = test: Biofilm inhibition assay (crystal violet); assay type: cell-based, Staphylococcus aureus; conditions: MRSA 52, 4 × MIC
Procedure: as §5, §6

MSSA 58 biofilm = test: Biofilm inhibition assay (crystal violet); assay type: cell-based, Staphylococcus aureus
Procedure: as §5, §6

MSSA 59 biofilm = test: Biofilm inhibition assay (crystal violet); assay type: cell-based, Staphylococcus aureus; conditions: MSSA 59, 4 × MIC
Procedure: as §5, §6

HCT-116 (colon cancer) = test: MTT cell viability assay; assay type: cell-based; conditions: Homo sapiens, 72 h incubation, mean ± SD
Procedure: (§7) Analysis was performed using the MTT test and 72 h of incubation.
(§8) All chemicals were obtained from Sigma-Aldrich (St. Louis, MO, USA). The MCF-7 and HeLa cell lines were purchased from Cell Lines Services (Eppelheim, Germany), the HCT-116 cell line was purchased from ATCC (ATCC-No: CCL-247). Cells were cultured in Dulbecco’s modified Eagle’s medium (DMEM) supplemented with 10% fetal bovine serum, 2 mM glutamine, 100 units/mL penicillin, and 100 μg/mL streptomycin. Cultures were held in an incubator (Heraceus, HeraCell) in a humidified atmosphere with 5% CO2 at 37 °C.
(§9) Cell viability was evaluated using the MTT (3-(4,5-dimethylthiazol-2-yl)-2,5-diphenyltetrazolium bromide) assay. Stock solutions of the studied compounds were obtained in 100% DMSO. […] Cells at a density of 5 × 10^3 cells/well, seeded in 96-well plates, were treated for 72 h with the tested compounds in the concentration range 1–100 μM (1, 10, 25, 50 and 100 μM). After treatment, cells were incubated for 2 h with MTT (0.5 mg/mL) at 37 °C. Cells were lysed with DMSO and the absorbance of the formazan solution was measured at 550 nm with a plate reader (1420 multilabel counter, Victor, Jügesheim, Germany). Values are expressed as the mean ± SD of at least three independent experiments conducted in triplicate.

HeLa (cervical cancer) = test: MTT cell viability assay; assay type: cell-based; conditions: Homo sapiens, 72 h incubation, mean ± SD
Procedure: as §7, §8, §9

MCF-7 (breast cancer) = test: MTT cell viability assay; assay type: cell-based; conditions: Homo sapiens, MCF7, 72 h incubation, mean ± SD
Procedure: as §7, §8, §9

[1] = system: clinical isolates of methicillin-resistant S. aureus (50–54) and methicillin-sensitive S. aureus (55–59); test: Broth dilution MIC/MBC, summary over clinical S. aureus isolates; assay type: cell-based, Staphylococcus aureus
Source text: as §1, §2, §3, §4

Cc1cc(S(=O)(=O)NC(=O)CCC2CCCCC2)c(SCc2cccc(C(F)(F)F)c2)cc1Cl [Compound 10, N-[4-Chloro-5-methyl-2-(3-trifluoromethylbenzylthio)benzenesulfonyl]-3-cyclohexylpropanamide]
MBC (S.aureus 55 (MSSA); read-out: MBC): > 128 µg/mL | MIC (S.aureus 55 (MSSA); read-out: MIC): 4 µg/mL (≈ 7.49 µM) | MBC (S.aureus 56 (MSSA); read-out: MBC): > 128 µg/mL | MIC (S.aureus 56 (MSSA); read-out: MIC): 4 µg/mL (≈ 7.49 µM) | MBC (S.aureus 57 (MSSA); read-out: MBC): > 128 µg/mL | MIC (S.aureus 57 (MSSA); read-out: MIC): 4 µg/mL (≈ 7.49 µM) | MBC (S.aureus 58 (MSSA); read-out: MBC): > 128 µg/mL | MIC (S.aureus 58 (MSSA); read-out: MIC): 4 µg/mL (≈ 7.49 µM) | MBC (S.aureus 59 (MSSA); read-out: MBC): > 128 µg/mL | MIC (S.aureus 59 (MSSA); read-out: MIC): 4 µg/mL (≈ 7.49 µM) | inhibition of biofilm formation (MRSA 51 biofilm): 88–89% | inhibition of biofilm formation (MRSA 52 biofilm): 88–89% | inhibition of biofilm formation (MSSA 58 biofilm; MSSA 58, concentration equal to the MIC): about 91% | inhibition of biofilm formation (MSSA 58 biofilm; MSSA 58, ½ MIC (2 μg/mL)): 67% | inhibition of biofilm formation (MSSA 59 biofilm): 91% | IC50 (HCT-116 (colon cancer)): 78 ± 3 µM | IC50 (HeLa (cervical cancer)): 94 ± 3 µM | IC50 (MCF-7 (breast cancer)): 81 ± 3 µM | MIC ([1]; Staphylococcus aureus, reference MRSA and MSSA strains as well as clinical isolates, read-out: MIC): 4 to 8 µg/mL (≈ 7.49 to 15 µM) | MBC ([1]; Staphylococcus aureus, summary over ten clinical MRSA and MSSA isolates (Table 4), read-out: MBC): > 128 µg/mL | MIC ([1]; Staphylococcus aureus, summary over ten clinical MRSA and MSSA isolates (Table 4), read-out: MIC): 4 µg/mL (≈ 7.49 µM) | MIC ([1]; summary over ten clinical MRSA and MSSA isolates (Table 4)): 4 to 8 µg/mL
